Measured values reported in patent US7119077B1, “Multimeric forms of members of the steroid/thyroid superfamily of receptors with the ultraspiracle receptor” (The Salk Institute for Biological Studies, priority 1990, dated 2006).

Assays:
GEcR/usp [1] = target: T1, GEcR/usp (UniProt P04150+P34021, C431Y/E427R/G434N/G439E/K419E/P331L/P416R/S425G/S440G/V435A/V443G); test: Cotransfection CAT reporter assay with GEcR (GR N-terminal domain fused to EcR) and usp in CV1 cells; assay type: cell-based, Drosophila; settings: CV1 cells transfected with GEcR alone
T1 construct: expressed in transfected cells; host or cells: CV1 monkey kidney cells
T1 sequence (P04150+P34021 with tags, fused parts or gaps P04150:P416R/P04150:K419E/P04150:S425G/P04150:E427R/P04150:C431Y/P04150:G434N/P04150:V435A/P04150:G439E/P04150:S440G/P04150:V443G/P34021:P331L): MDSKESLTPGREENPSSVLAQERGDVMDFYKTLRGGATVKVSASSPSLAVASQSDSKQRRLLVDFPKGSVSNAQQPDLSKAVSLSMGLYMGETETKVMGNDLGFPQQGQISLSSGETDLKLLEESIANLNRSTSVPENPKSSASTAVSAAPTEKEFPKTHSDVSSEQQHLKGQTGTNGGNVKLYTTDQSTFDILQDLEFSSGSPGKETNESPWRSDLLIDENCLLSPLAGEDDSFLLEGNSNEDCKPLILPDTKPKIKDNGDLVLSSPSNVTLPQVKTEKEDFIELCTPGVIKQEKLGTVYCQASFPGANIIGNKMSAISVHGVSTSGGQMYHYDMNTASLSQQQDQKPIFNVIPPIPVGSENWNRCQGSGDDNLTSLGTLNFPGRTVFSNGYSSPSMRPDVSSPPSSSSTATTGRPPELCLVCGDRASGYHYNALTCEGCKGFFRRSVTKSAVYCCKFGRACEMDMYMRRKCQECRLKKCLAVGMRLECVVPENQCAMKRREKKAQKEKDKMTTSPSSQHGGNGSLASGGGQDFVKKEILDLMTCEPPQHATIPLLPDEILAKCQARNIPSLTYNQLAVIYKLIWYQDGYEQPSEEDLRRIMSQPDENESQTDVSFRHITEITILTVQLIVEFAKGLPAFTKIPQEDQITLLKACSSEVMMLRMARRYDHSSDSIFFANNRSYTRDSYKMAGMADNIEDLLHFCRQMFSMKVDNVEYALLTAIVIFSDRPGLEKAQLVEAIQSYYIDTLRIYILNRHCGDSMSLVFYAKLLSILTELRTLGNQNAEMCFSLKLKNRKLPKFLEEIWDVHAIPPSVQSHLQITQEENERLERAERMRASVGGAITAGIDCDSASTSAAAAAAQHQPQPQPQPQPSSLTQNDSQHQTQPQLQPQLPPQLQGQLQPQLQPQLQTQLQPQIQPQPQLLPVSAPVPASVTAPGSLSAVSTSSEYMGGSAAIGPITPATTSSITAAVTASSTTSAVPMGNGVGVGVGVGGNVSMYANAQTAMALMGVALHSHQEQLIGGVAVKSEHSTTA
Source text: (§1) GEcR was constructed by ligation of a NotI/BamHI fragment containing the DNA and hormone binding domains of a modified EcR cDNA, EcRnx, in place of the DNA and hormone binding domains of the similarly modified glucocorticoid receptor expression construct pRShGRnx [Giguére et al., Nature Vol. 330:624–629 (1987)]. The modified receptor cDNA was constructed using the site-directed mutagenesis procedure of Kunkel, T. A., Proc. Natl. Acad. Sci. USA Vol. 82:[…] (1985) to insert NotI (employing SEQ ID NO:23 as the oligonucleotide template) and XhoI (employing SEQ ID NO:24 as the oligonucleotide template) sites immediately flanking the DNA binding domain. SEQ ID NO:23 is:
(§2) Transfection was performed with calcium-phosphate precipitation method as described previously [Umesono et al., Nature 336:262–264 (1989)]. […] Beta-galactosidase (βGal) activity was measured and a normalized amount of extract was used for CAT assay (Umesono et al. (1989) supra]. The following amount of plasmid DNA was included in the 10 cm plate transfection: 250 ng each of CMX-EcR and RSV-GEcR; 500 ng of CMX-usp; 5 μg ΔMTV-EcRE5-CTA; 5 μg of βGal internal control plasmid CH111 (a derivative of CH110, Promega). The amount of CMX plasmid was kept constant in each transfection by adding CMX-luciferase. PGEM4 was added to bring the total amount of plasmid DNA to 15 μg per plate. […]

GEcR/usp [2] = target: T2, GEcR/usp (UniProt P04150+P34021, C431Y/E427R/G434N/G439E/K419E/P331L/P416R/S425G/S440G/V435A/V443G); test: as above; assay type: cell-based, Drosophila; settings: CV1 cells cotransfected with GEcR and usp expression plasmid, EcRE reporter
T2 construct: expressed in transfected cells; host or cells: CV1 monkey kidney cells
T2 sequence (P04150+P34021 with tags, fused parts or gaps P04150:P416R/P04150:K419E/P04150:S425G/P04150:E427R/P04150:C431Y/P04150:G434N/P04150:V435A/P04150:G439E/P04150:S440G/P04150:V443G/P34021:P331L): T1 sequence (P04150+P34021 with tags, fused parts or gaps P04150:P416R/P04150:K419E/P04150:S425G/P04150:E427R/P04150:C431Y/P04150:G434N/P04150:V435A/P04150:G439E/P04150:S440G/P04150:V443G/P34021:P331L)
T2 sequence (P20153 1-508 partner): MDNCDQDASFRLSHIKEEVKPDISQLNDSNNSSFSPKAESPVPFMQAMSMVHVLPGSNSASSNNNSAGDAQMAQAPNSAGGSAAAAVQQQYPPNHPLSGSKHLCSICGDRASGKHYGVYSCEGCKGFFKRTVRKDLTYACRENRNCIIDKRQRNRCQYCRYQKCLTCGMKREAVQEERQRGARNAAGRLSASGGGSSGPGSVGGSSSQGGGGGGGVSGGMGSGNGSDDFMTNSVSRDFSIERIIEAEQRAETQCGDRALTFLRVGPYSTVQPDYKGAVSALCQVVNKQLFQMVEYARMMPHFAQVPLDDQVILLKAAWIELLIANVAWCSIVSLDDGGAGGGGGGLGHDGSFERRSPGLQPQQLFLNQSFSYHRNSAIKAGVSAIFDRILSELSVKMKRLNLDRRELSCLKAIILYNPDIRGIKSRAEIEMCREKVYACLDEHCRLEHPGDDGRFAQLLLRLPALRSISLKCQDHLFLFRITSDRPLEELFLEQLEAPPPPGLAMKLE
Source text: as §1, §2

20-Hydroxyecdysone [20-OH-ecdysone]
ecdysone response (CAT activity) (GEcR/usp [1]): failed to confer ecdysone response
induction of CAT activity (GEcR/usp [2]): 8–10 fold
